Measurements from ChEMBL document CHEMBL1201862, “PubChem BioAssay data set” (2004).
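Briefly, cells in 96-well plates were exposed to five compound concentrations for 48 h, and endpoints were estimated by linear interpolation. Here, GI50 denotes the concentration required for 50% inhibition of growth.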 Active and inactive are the calls of the source. Rule as the data show it: active = GI50 up to about 1.1 µM and inactive = higher.

How the values were obtained:
Assay in all cases: NCI-60 cell line screen, 48 h
PC-3 = tested on: PC-3
SNB-75 = tested on: SNB-75
HOP-62 = tested on: HOP-62
NCI-H460 = tested on: NCI-H460
DU-145 = tested on: DU-145
NCI-H23 = tested on: NCI-H23
SK-MEL-2 = tested on: SK-MEL-2
T47D = tested on: T47D
HT-29 = tested on: HT-29
EKVX = tested on: EKVX
OVCAR-5 = tested on: OVCAR-5
SK-MEL-5 = tested on: SK-MEL-5
MDA-MB-435 = tested on: MDA-MB-435
MCF7 = tested on: MCF7
SR = tested on: SR
SF-268 = tested on: SF-268
A549 = tested on: A549
786-0 = tested on: 786-0
SK-MEL-28 = tested on: SK-MEL-28
RPMI-8226 = tested on: RPMI-8226
UO-31 = tested on: UO-31
LOX IMVI = tested on: LOX IMVI
SF-539 = tested on: SF-539
CCRF-CEM = tested on: CCRF-CEM
HL-60 = tested on: HL-60
OVCAR-4 = tested on: OVCAR-4
NCI-H226 = tested on: NCI-H226
TK-10 = tested on: TK-10
M14 = tested on: M14
U-251 = tested on: U-251
HCT-15 = tested on: HCT-15
SK-OV-3 = tested on: SK-OV-3
HCC 2998 = tested on: HCC 2998
HCT-116 = tested on: HCT-116
ACHN = tested on: ACHN
OVCAR-3 = tested on: OVCAR-3
SNB-19 = tested on: SNB-19
A498 = tested on: A498
Malme-3M = tested on: Malme-3M
NCI/ADR-RES = tested on: NCI/ADR-RES
NCI-H522 = tested on: NCI-H522
UACC-257 = tested on: UACC-257
SN12C = tested on: SN12C
BT-549 = tested on: BT-549
KM12 = tested on: KM12
Hs-578T = tested on: Hs-578T
COLO 205 = tested on: COLO 205
OVCAR-8 = tested on: OVCAR-8
MOLT-4 = tested on: MOLT-4
HOP-92 = tested on: HOP-92
MDA-MB-231 = tested on: MDA-MB-231
SF-295 = tested on: SF-295
UACC-62 = tested on: UACC-62
SW-620 = tested on: SW-620
IGROV-1 = tested on: IGROV-1
K562 = tested on: K562
CAKI-1 = tested on: CAKI-1
RXF 393 = tested on: RXF 393

Measured: GI50

CC(=O)OC1C2CCC1C1C2N=NN1c1ccc([N+](=O)[O-])cc1 (stereo unspecified)
inactive: PC-3 > 100 µM | SNB-75 > 100 µM | HOP-62 > 100 µM | NCI-H460 > 100 µM | DU-145 > 100 µM | NCI-H23 > 100 µM | SK-MEL-2 > 100 µM | T47D > 100 µM | HT-29 > 100 µM | EKVX > 100 µM | OVCAR-5 > 100 µM | SK-MEL-5 > 100 µM | MDA-MB-435 > 100 µM | MCF7 > 100 µM | SR 15.7 µM | SF-268 > 100 µM | A549 > 100 µM | 786-0 > 100 µM | SK-MEL-28 > 100 µM | RPMI-8226 > 100 µM | UO-31 > 100 µM | LOX IMVI > 100 µM | SF-539 > 100 µM | CCRF-CEM > 100 µM | HL-60 > 100 µM | OVCAR-4 > 100 µM | NCI-H226 > 100 µM | TK-10 > 100 µM | M14 > 100 µM | U-251 > 100 µM | SK-OV-3 > 100 µM | HCC 2998 > 100 µM | HCT-116 > 100 µM | ACHN > 100 µM | OVCAR-3 > 100 µM | SNB-19 > 100 µM | A498 > 100 µM | Malme-3M > 100 µM | NCI/ADR-RES > 100 µM | NCI-H522 64.4 µM | UACC-257 > 100 µM | SN12C > 100 µM | BT-549 > 100 µM | KM12 > 100 µM | Hs-578T > 100 µM | COLO 205 > 100 µM | OVCAR-8 > 100 µM | MOLT-4 > 100 µM | HOP-92 > 100 µM | MDA-MB-231 > 100 µM | SF-295 > 100 µM | UACC-62 > 100 µM | SW-620 > 100 µM | IGROV-1 > 100 µM
> 100 µM: HCT-15

CCCCCCNC(=O)c1cnc(Cl)cn1
inactive: PC-3 5.51 µM | SNB-75 21 µM | HOP-62 16.1 µM | NCI-H460 19.3 µM | K562 13 µM | DU-145 16.1 µM | NCI-H23 11.1 µM | SK-MEL-2 14.7 µM | T47D 20 µM | HT-29 33.1 µM | EKVX 5.93 µM | OVCAR-5 17.3 µM | SK-MEL-5 16.8 µM | MDA-MB-435 15.6 µM | MCF7 5.15 µM | SR 4.3 µM | SF-268 14.3 µM | A549 13.8 µM | 786-0 26.1 µM | SK-MEL-28 24 µM | RPMI-8226 29 µM | UO-31 1.85 µM | LOX IMVI 14.6 µM | SF-539 17.6 µM | CCRF-CEM 13.7 µM | HL-60 23.8 µM | OVCAR-4 20.6 µM | NCI-H226 10 µM | TK-10 22.4 µM | M14 13.2 µM | U-251 11.5 µM | SK-OV-3 22.9 µM | HCT-116 17.1 µM | ACHN 2.36 µM | SNB-19 17.5 µM | Malme-3M 16.7 µM | NCI/ADR-RES 15.6 µM | UACC-257 14.3 µM | SN12C 13.3 µM | BT-549 26.2 µM | KM12 15.9 µM | Hs-578T 14.2 µM | CAKI-1 1.17 µM | COLO 205 18.4 µM | OVCAR-8 12.4 µM | MOLT-4 4.82 µM | HOP-92 3.15 µM | MDA-MB-231 16.7 µM | SF-295 18.1 µM | UACC-62 17.2 µM | SW-620 15.1 µM | IGROV-1 10.5 µM
2.55 µM: HCT-15
active: NCI-H522 0.206 µM

CC(=O)O[C@@H]1[C@@H](O)C2=C3[C@]4(C)[C@@H]1C(C)(C)C(=O)C[C@@H]4[C@]3(O)[C@H](OC(C)=O)[C@@]1(C[C@@H]1C)C2=O
inactive: PC-3 19.6 µM | SNB-75 21.8 µM | NCI-H460 15.5 µM | K562 2.71 µM | DU-145 17.3 µM | NCI-H23 29.3 µM | SK-MEL-2 25.6 µM | T47D 16.3 µM | EKVX 19.2 µM | OVCAR-5 23.7 µM | SK-MEL-5 19.8 µM | MDA-MB-435 16 µM | MCF7 19 µM | SF-268 25.1 µM | A549 24.2 µM | 786-0 15.6 µM | SK-MEL-28 16.3 µM | RPMI-8226 6.7 µM | UO-31 17.5 µM | LOX IMVI 14.8 µM | SF-539 21.3 µM | CCRF-CEM 7.82 µM | HL-60 13.6 µM | OVCAR-4 19.5 µM | TK-10 14.2 µM | M14 25.2 µM | U-251 16 µM | SK-OV-3 24.2 µM | HCC 2998 15.4 µM | HCT-116 16.1 µM | ACHN 18.9 µM | OVCAR-3 18.5 µM | SNB-19 21 µM | A498 23.4 µM | Malme-3M 13.5 µM | NCI/ADR-RES 23.4 µM | NCI-H522 5.18 µM | UACC-257 13.9 µM | SN12C 18.4 µM | BT-549 16.1 µM | KM12 16.6 µM | Hs-578T 41.2 µM | CAKI-1 15.5 µM | COLO 205 18.4 µM | OVCAR-8 18.5 µM | MOLT-4 26.6 µM | HOP-92 15.6 µM | MDA-MB-231 19.7 µM | SF-295 20.7 µM | UACC-62 13.7 µM | SW-620 18.3 µM | IGROV-1 15.4 µM
15.3 µM: HCT-15

CC(C)(C)OC(=O)NCC(C#N)CNC(=O)OC(C)(C)C
inactive: PC-3 > 100 µM | HOP-62 > 100 µM | NCI-H460 > 100 µM | K562 > 100 µM | DU-145 > 100 µM | NCI-H23 > 100 µM | T47D > 100 µM | RXF 393 > 100 µM | EKVX > 100 µM | OVCAR-5 > 100 µM | SK-MEL-5 > 100 µM | MDA-MB-435 > 100 µM | MCF7 > 100 µM | SR > 100 µM | SF-268 > 100 µM | A549 > 100 µM | 786-0 > 100 µM | SK-MEL-28 > 100 µM | RPMI-8226 > 100 µM | UO-31 > 100 µM | LOX IMVI > 100 µM | SF-539 > 100 µM | CCRF-CEM > 100 µM | HL-60 > 100 µM | OVCAR-4 > 100 µM | NCI-H226 > 100 µM | TK-10 > 100 µM | M14 > 100 µM | U-251 > 100 µM | SK-OV-3 > 100 µM | HCC 2998 > 100 µM | HCT-116 > 100 µM | ACHN > 100 µM | OVCAR-3 > 100 µM | SNB-19 > 100 µM | A498 > 100 µM | Malme-3M > 100 µM | NCI/ADR-RES > 100 µM | NCI-H522 > 100 µM | UACC-257 > 100 µM | SN12C > 100 µM | BT-549 > 100 µM | KM12 > 100 µM | Hs-578T > 100 µM | CAKI-1 > 10 µM | COLO 205 > 100 µM | OVCAR-8 > 100 µM | MOLT-4 > 100 µM | HOP-92 > 100 µM | MDA-MB-231 > 100 µM | SF-295 > 100 µM | UACC-62 > 100 µM | SW-620 > 100 µM | IGROV-1 > 100 µM
> 100 µM: HCT-15

COCn1cnc2c(=O)n(-c3ccc(OC)cc3)c(=S)n(-c3ccc(OC)cc3)c21
inactive: PC-3 > 100 µM | SNB-75 > 100 µM | HOP-62 > 100 µM | NCI-H460 > 100 µM | K562 > 100 µM | DU-145 > 100 µM | NCI-H23 > 100 µM | SK-MEL-2 > 100 µM | T47D > 100 µM | RXF 393 > 100 µM | HT-29 > 100 µM | EKVX > 100 µM | OVCAR-5 > 100 µM | SK-MEL-5 > 100 µM | MDA-MB-435 > 100 µM | MCF7 > 100 µM | SR > 100 µM | SF-268 > 100 µM | A549 > 100 µM | 786-0 > 100 µM | SK-MEL-28 > 100 µM | RPMI-8226 > 100 µM | UO-31 > 100 µM | LOX IMVI > 100 µM | SF-539 > 100 µM | CCRF-CEM > 100 µM | HL-60 > 100 µM | OVCAR-4 89.3 µM | NCI-H226 > 100 µM | TK-10 > 100 µM | M14 > 100 µM | U-251 > 100 µM | SK-OV-3 > 100 µM | HCC 2998 > 100 µM | HCT-116 > 100 µM | ACHN > 100 µM | OVCAR-3 > 100 µM | A498 > 100 µM | NCI/ADR-RES > 100 µM | NCI-H522 > 100 µM | UACC-257 > 100 µM | SN12C > 100 µM | BT-549 > 100 µM | KM12 > 100 µM | CAKI-1 > 100 µM | COLO 205 > 100 µM | OVCAR-8 > 100 µM | MOLT-4 > 100 µM | MDA-MB-231 > 100 µM | SF-295 > 100 µM | UACC-62 > 100 µM | SW-620 > 100 µM | IGROV-1 > 100 µM
> 100 µM: HCT-15
